Data published in patent US9833497B2, “Human originated EGF domain proteins and use of the same” (CHENGDU SOURCEBIO LIMITED-LIABILITY COMPANY, priority 2013, dated 2017).

Assays:
Type in all cases: cell-based
E. coli DH5α = test: Antibacterial activity: MIC and growth curve against E. coli DH5α in 96-well plate; conditions: minimal inhibitory concentration against E. coli DH5α; 96-well plate, 5×10^5 CFU/mL, 37° C., judged after 8 h
Outline: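 Log-phase bacteria (OD600 ~0.5) resuspended in LB at 5×10^5 CFU/mL, exposed to recombinant protein at 50, 25, 12.5 μg/mL final in triplicate, 37 °C shaking at 175 rpm. OD600 read every 30 min; MIC is lowest concentration showing no growth.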

E. coli BL21 = test: MIC against Gram-negative bacteria: E. coli BL21; conditions: 5×10^5 CFU/mL
Outline: (§1)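 Two-fold serial dilutions of each purified human EGF domain protein, three replicate wells per level, were combined with bacteria at a final 5×10^5 CFU/mL in LB. Cultures were shaken at 175 rpm, 37° C. The MIC was taken as the minimum concentration preventing growth.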

Pseudomonas aeruginosa = test: MIC against Gram-negative bacteria: Pseudomonas aeruginosa; conditions: 5×10^5 CFU/mL
Outline: as §1

Klebsiella pneumonia = test: MIC against Gram-negative bacteria: Klebsiella pneumonia; conditions: 5×10^5 CFU/mL
Outline: as §1

Enterobacter cloacae = test: MIC against Gram-negative bacteria: Enterobacter cloacae; conditions: 5×10^5 CFU/mL
Outline: as §1

Aeromonas hydrophila = test: MIC against Gram-negative bacteria: Aeromonas hydrophila; conditions: 5×10^5 CFU/mL
Outline: as §1

Citrobacter diversus = test: MIC against Gram-negative bacteria: Citrobacter diversus; conditions: 5×10^5 CFU/mL
Outline: as §1

Moraxella catarrhalis = test: MIC against Gram-negative bacteria: Moraxella catarrhalis; conditions: 5×10^5 CFU/mL
Outline: as §1

Proteus mirabilis = test: MIC against Gram-negative bacteria: Proteus mirabilis; conditions: 5×10^5 CFU/mL
Outline: as §1

Proteus vulgaris = test: MIC against Gram-negative bacteria: Proteus vulgaris; conditions: 5×10^5 CFU/mL
Outline: as §1

Serratia marcescens = test: MIC against Gram-negative bacteria: Serratia marcescens; conditions: 5×10^5 CFU/mL
Outline: as §1

[1] = E. coli BL21, 10 h cultivation at 37° C.
[2] = Pseudomonas aeruginosa, 10 h cultivation at 37° C.
[3] = Klebsiella pneumonia, 10 h cultivation at 37° C.
[4] = Enterobacter cloacae, 10 h cultivation at 37° C.
[5] = Aeromonas hydrophila, 10 h cultivation at 37° C.
[6] = Citrobacter diversus, 10 h cultivation at 37° C.
[7] = Moraxella catarrhalis, 10 h cultivation at 37° C.
[8] = Proteus mirabilis, 10 h cultivation at 37° C.
[9] = Proteus vulgaris, 10 h cultivation at 37° C.
[10] = Serratia marcescens, 10 h cultivation at 37° C.
[11] = P. aeruginosa, 10 h cultivation at 37° C.
[12] = K. pneumonia, 10 h cultivation at 37° C.
[13] = E. cloacae, 10 h cultivation at 37° C.
[14] = A. hydrophila, 10 h cultivation at 37° C.
[15] = C. diversus, 10 h cultivation at 37° C.
[16] = M. catarrhalis, 10 h cultivation at 37° C.
[17] = P. mirabilis, 10 h cultivation at 37° C.
[18] = P. vulgaris, 10 h cultivation at 37° C.
[19] = S. marcescens, 10 h cultivation at 37° C.

PRT679 (DLNECAKPHLCGDGGFCINFPGHYKCNCYPGYRLKASRPPVCE; listed as Homo sapiens)
MIC (E. coli DH5α): 12.5 µg/mL | MIC E. coli BL21 (E. coli BL21; 96-well plate, 37° C., 10 h): 50 µg/mL | MIC P. aeruginosa (Pseudomonas aeruginosa; 96-well plate, 37° C., 10 h): 25 µg/mL | MIC K. pneumonia (Klebsiella pneumonia; 96-well plate, 37° C., 10 h): 25 µg/mL | MIC E. cloacae (Enterobacter cloacae; 96-well plate, 37° C., 10 h): 12.5 µg/mL | MIC A. hydrophila (Aeromonas hydrophila; 96-well plate, 37° C., 10 h): 25 µg/mL | MIC C. diversus (Citrobacter diversus; 96-well plate, 37° C., 10 h): 50 µg/mL | MIC M. catarrhalis (Moraxella catarrhalis; 96-well plate, 37° C., 10 h): 12.5 µg/mL | MIC P. mirabilis (Proteus mirabilis; 96-well plate, 37° C., 10 h): 25 µg/mL | MIC P. vulgaris (Proteus vulgaris; 96-well plate, 37° C., 10 h): 50 µg/mL | MIC S. marcescens (Serratia marcescens; 96-well plate, 37° C., 10 h): 25 µg/mL

PRT1442 (DKDECAKDNGGCQHECVNTFGSYLCRCRNGYWLHENGHDCK; listed as Homo sapiens)
MIC (E. coli DH5α): 12.5 µg/mL | MIC against E. coli BL21 (E. coli BL21; [1]): 12.5 µg/mL | MIC against P. aeruginosa (Pseudomonas aeruginosa; [2]): 12.5 µg/mL | MIC against K. pneumonia (Klebsiella pneumonia; [3]): 50 µg/mL | MIC against E. cloacae (Enterobacter cloacae; [4]): 12.5 µg/mL | MIC against A. hydrophila (Aeromonas hydrophila; [5]): 25 µg/mL | MIC against C. diversus (Citrobacter diversus; [6]): 25 µg/mL | MIC against M. catarrhalis (Moraxella catarrhalis; [7]): 50 µg/mL | MIC against P. mirabilis (Proteus mirabilis; [8]): 25 µg/mL | MIC against P. vulgaris (Proteus vulgaris; [9]): 12.5 µg/mL | MIC against S. marcescens (Serratia marcescens; [10]): 25 µg/mL

PRT436 (DINECEHRNHTCNLQQTCYNLQGGFKCIDPIRCEEPYLRISDNRCM; listed as Homo sapiens)
MIC (E. coli DH5α): 12.5 µg/mL | MIC (E. coli BL21; [1]): 25 µg/mL | MIC (Pseudomonas aeruginosa; [11]): 50 µg/mL | MIC (Klebsiella pneumonia; [12]): 25 µg/mL | MIC (Enterobacter cloacae; [13]): 12.5 µg/mL | MIC (Aeromonas hydrophila; [14]): 50 µg/mL | MIC (Citrobacter diversus; [15]): 12.5 µg/mL | MIC (Moraxella catarrhalis; [16]): 50 µg/mL | MIC (Proteus mirabilis; [17]): 12.5 µg/mL | MIC (Proteus vulgaris; [18]): 50 µg/mL | MIC (Serratia marcescens; [19]): 100 µg/mL

PRT147 (DINECEINNGGCSVAPPVECVNTPGSSHCQACPPGYQGDGRVCT; listed as Homo sapiens)
MIC (E. coli DH5α): 12.5 µg/mL | MIC (μg/mL) E. coli BL21 (E. coli BL21; [1]): 12.5 µg/mL | MIC (μg/mL) P. aeruginosa (Pseudomonas aeruginosa; [11]): 12.5 µg/mL | MIC (μg/mL) K. pneumonia (Klebsiella pneumonia; [12]): 12.5 µg/mL | MIC (μg/mL) E. cloacae (Enterobacter cloacae; [13]): 12.5 µg/mL | MIC (μg/mL) A. hydrophila (Aeromonas hydrophila; [14]): 12.5 µg/mL | MIC (μg/mL) C. diversus (Citrobacter diversus; [15]): 12.5 µg/mL | MIC (μg/mL) M. catarrhalis (Moraxella catarrhalis; [16]): 12.5 µg/mL | MIC (μg/mL) P. mirabilis (Proteus mirabilis; [17]): 12.5 µg/mL | MIC (μg/mL) P. vulgaris (Proteus vulgaris; [18]): 25 µg/mL | MIC (μg/mL) S. marcescens (Serratia marcescens; [19]): 12.5 µg/mL

PRT1461 (CNCNTSGTVDGDITCHQNSGQCKCKANVIGLRCDHCNFGFKFLRSFNDVGCEP; listed as Homo sapiens)
MIC (E. coli DH5α): 25 µg/mL | MIC against E. coli BL21 (E. coli BL21; [1]): 12.5 µg/mL | MIC against P. aeruginosa (Pseudomonas aeruginosa; [2]): 50 µg/mL | MIC against K. pneumonia (Klebsiella pneumonia; [3]): 12.5 µg/mL | MIC against E. cloacae (Enterobacter cloacae; [4]): 25 µg/mL | MIC against A. hydrophila (Aeromonas hydrophila; [5]): 12.5 µg/mL | MIC against C. diversus (Citrobacter diversus; [6]): 25 µg/mL | MIC against M. catarrhalis (Moraxella catarrhalis; [7]): 12.5 µg/mL | MIC against P. mirabilis (Proteus mirabilis; [8]): 25 µg/mL | MIC against P. vulgaris (Proteus vulgaris; [9]): 12.5 µg/mL | MIC against S. marcescens (Serratia marcescens; [10]): 25 µg/mL

PRT107 (DRCLPSYCEHGGECSQSWDTFSCDCLGTGYTGETC; listed as Homo sapiens)
MIC (E. coli DH5α): 12.5 µg/mL | MIC (μg/mL) E. coli BL21 (E. coli BL21; E. coli BL21, 96-well plate, 37° C., 10 h): 12.5 µg/mL | MIC (μg/mL) P. aeruginosa (Pseudomonas aeruginosa; Pseudomonas aeruginosa, 96-well plate, 37° C., 10 h): 12.5 µg/mL | MIC (μg/mL) K. pneumonia (Klebsiella pneumonia; Klebsiella pneumonia, 96-well plate, 37° C., 10 h): 12.5 µg/mL | MIC (μg/mL) E. cloacae (Enterobacter cloacae; Enterobacter cloacae, 96-well plate, 37° C., 10 h): 12.5 µg/mL | MIC (μg/mL) A. hydrophila (Aeromonas hydrophila; Aeromonas hydrophila, 96-well plate, 37° C., 10 h): 50 µg/mL | MIC (μg/mL) C. diversus (Citrobacter diversus; Citrobacter diversus, 96-well plate, 37° C., 10 h): 25 µg/mL | MIC (μg/mL) M. catarrhalis (Moraxella catarrhalis; Moraxella catarrhalis, 96-well plate, 37° C., 10 h): 12.5 µg/mL | MIC (μg/mL) P. mirabilis (Proteus mirabilis; Proteus mirabilis, 96-well plate, 37° C., 10 h): 25 µg/mL | MIC (μg/mL) P. vulgaris (Proteus vulgaris; Proteus vulgaris, 96-well plate, 37° C., 10 h): 50 µg/mL | MIC (μg/mL) S. marcescens (Serratia marcescens; Serratia marcescens, 96-well plate, 37° C., 10 h): 12.5 µg/mL
